This is an account of results in patent US11759456B2, “Pharmaceutical composition” (KOWA COMPANY, LTD., priority 2017, dated 2023).

A short description of this series: Laser Diffraction Measurement of Particle Size of primary particles. Format: physicochemical. The conditions noted are these: pemafibrate used in Test Examples; Japanese Pharmacopoeia 17th Edition laser diffraction.

As to `CC[C@@H](Oc1cccc(CN(CCCOc2ccc(OC)cc2)c2nc3ccccc3o2)c1)C(=O)O` [pemafibrate, (2R)-2-[3-([1,3-Benzoxazol-2-yl[3-(4-methoxyphenoxy)propyl]amino]methyl)phenoxy]butanoic acid], the “d50 value (average particle diameter of primary particles)” value was not above 100 μm and the “d90 value (average particle diameter of primary particles)” value is on record as not above 200 μm.
